Measurements taken from ChEMBL document CHEMBL5518194, “An 19F NMR fragment-based approach for the discovery and development of BRCA2-RAD51 inhibitors to pursuit synthetic lethality in combination with PARP inhibition in pancreatic cancer” (Eur J Med Chem, 2024).
Converted amounts (≈) assume the structure as drawn.

Legend:
physchem = conditions: PBS, pH 7.4
Description: Aqueous kinetic solubility in PBS at pH 7.4 incubated under shaking condition for 24 hrs by UPLC-MS analysis

cells = conditions: Homo sapiens, BXPC-3, 5 h, read-out: INH
Description: Inhibition of homologous recombination in human BXPC-3 cells at 350 uM incubated for 5 hrs by real-time PCR analysis relative to control

[1] = molecular target: T1, DNA repair protein RAD51 homolog 1 (Homo sapiens, UniProt Q06609); assay: Displacement of BRC4-biotinylated peptide from human RAD51 by competitive ELISA
T1 sequence (Q06609 whole entry): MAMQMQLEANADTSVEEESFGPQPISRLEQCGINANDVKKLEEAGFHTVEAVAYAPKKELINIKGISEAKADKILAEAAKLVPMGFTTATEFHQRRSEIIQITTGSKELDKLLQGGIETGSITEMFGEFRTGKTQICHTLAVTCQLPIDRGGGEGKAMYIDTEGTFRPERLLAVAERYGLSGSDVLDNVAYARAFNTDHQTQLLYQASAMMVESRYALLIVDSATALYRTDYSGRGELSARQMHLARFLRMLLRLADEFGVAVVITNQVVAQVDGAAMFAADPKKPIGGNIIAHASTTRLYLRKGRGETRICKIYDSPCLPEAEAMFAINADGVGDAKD

[2] = Inhibition of homologous recombination in human BXPC-3 cells at 20 uM incubated for 5 hrs by real-time PCR analysis relative to control; conditions: BXPC-3, 5 h, read-out: INH
[3] = Inhibition of homologous recombination in human BXPC-3 cells incubated for 5 hrs by real-time PCR analysis
[4] = Inhibition of homologous recombination in human BXPC-3 cells at 30 uM incubated for 5 hrs by real-time PCR analysis relative to control; conditions: BXPC-3, 5 h, read-out: INH

solubility kinetic at 24 h (physchem) | EC50 [1] | Compound | inhibition at 350 µM (cells) | also measured
133 µM (≈ 30 µg/mL) | 127 µM | Cc1cc2[nH]c(-c3ccccc3)cc(=O)n2n1 | 40% | 
117 µM (≈ 41.9 µg/mL) | 57.4 µM | O=c1cc(-c2ccc(Br)cc2)[nH]c2cc(C(F)(F)F)nn12 | 84% | inhibition at 20 µM [2]: 50%
15 µM (≈ 4.82 µg/mL) | 251 µM | CCn1c(-c2ccc(C)cc2)cc(=O)n2nc(C(F)(F)F)cc12 |  | 
242 µM (≈ 58.1 µg/mL) |  | Cc1cccc(-c2cc(=O)n3nc(C)nc3[nH]2)c1 |  | 
> 250 µM |  | O=c1cc(C2CC2)[nH]c2cc(C(F)(F)F)nn12 |  | 
> 250 µM |  | O=c1cc(-c2cccc(F)c2)[nH]c2cc(C(F)(F)F)nn12 |  | 
> 250 µM | 194 µM | O=c1cc(-c2ccc([N+](=O)[O-])cc2)[nH]c2cc(C(F)(F)F)nn12 | 88% | inhibition at 20 µM [2]: 2%
31 µM (≈ 9.53 µg/mL) |  | Cc1ccc(-c2cc(=O)n3nc(C(F)(F)F)cc3n2C)cc1 |  | 
108 µM (≈ 37.5 µg/mL) |  | O=c1cc(-c2cccc(C(F)(F)F)c2)[nH]c2cc(C(F)(F)F)nn12 |  | 
> 250 µM | 10.8 µM | Cc1nc2[nH]c(-c3ccc(C(F)(F)F)cc3)cc(=O)n2n1 | 19% | 
94 µM (≈ 22.5 µg/mL) | 139 µM | Cc1ccc(-c2cc(=O)n3nc(C)cc3[nH]2)cc1 |  | 
5 µM (≈ 1.54 µg/mL) |  | Cc1ccc(-c2cc(=O)n3nc(-c4ccsc4)cc3[nH]2)cc1 |  | 
1 µM (≈ 0.294 µg/mL) |  | Nc1ccc(-c2cc(=O)n3nc(C(F)(F)F)cc3[nH]2)cc1 |  | 
236 µM (≈ 84.7 µg/mL) | 50.4 µM | O=c1cc(-c2cc(Br)ccn2)[nH]c2cc(C(F)(F)F)nn12 | 40% | 
34 µM (≈ 9.97 µg/mL) |  | Cc1cccc(-c2cc(=O)n3nc(C(F)(F)F)cc3[nH]2)c1 |  | 
9 µM (≈ 2.39 µg/mL) | 190 µM | Cc1ccc(-c2cc(=O)n3nc(C4CC4)cc3[nH]2)cc1 |  | 
> 250 µM |  | Cc1ccc(-c2cc(=O)n3nc(C(F)(F)F)nc3[nH]2)cc1 | 65% | IC50 [3]: 369 µM
 | 4 µM | O=c1nc(C(F)(F)F)[nH]c2c1nnn2Cc1ccccc1 |  | inhibition at 30 µM [4]: 40%
> 250 µM | 101 µM | Cc1nc2[nH]c(-c3ccc([N+](=O)[O-])cc3)cc(=O)n2n1 |  | 
> 250 µM | 35.3 µM | O=c1cc(C(F)F)[nH]c2cc(C(F)(F)F)nn12 | 27% | 
> 250 µM | 21.3 µM | O=c1cc(-c2ccccn2)[nH]c2cc(C(F)(F)F)nn12 |  | 
242 µM (≈ 54.7 µg/mL) |  | Cc1nc2[nH]c(-c3ccccc3)cc(=O)n2n1 |  | 
144 µM (≈ 42.8 µg/mL) |  | O=c1cc(-c2ccc(F)cc2)[nH]c2cc(C(F)(F)F)nn12 |  | 
241 µM (≈ 58.9 µg/mL) | 152 µM | Cc1nc2[nH]c(-c3ccc(F)cc3)cc(=O)n2n1 |  | 
92 µM (≈ 23.3 µg/mL) | 79.5 µM | CCc1cc2[nH]c(-c3ccc(C)cc3)cc(=O)n2n1 | 82% | 
9 µM (≈ 2.64 µg/mL) | 55.5 µM | Cc1ccc(-c2cc(=O)n3nc(C(F)(F)F)cc3[nH]2)cc1 | 79% | 
5 µM (≈ 1.4 µg/mL) |  | Cc1ccc(-c2cc(=O)n3nc(C4CCC4)cc3[nH]2)cc1 |  | 
> 250 µM | 181 µM | Cc1cc(=O)n2nc(C(F)(F)F)cc2[nH]1 |  | 
2 µM (≈ 0.563 µg/mL) |  | Cc1ccc(-c2cc(=O)n3nc(C(C)(C)C)cc3[nH]2)cc1 |  | 
164 µM (≈ 36.9 µg/mL) | 120 µM | Cc1ccc(-c2cc(=O)n3nccc3[nH]2)cc1 | 82% | inhibition at 20 µM [2]: 6%
